Test results published in US7160902B2, “Amide derivatives and methods of their use” (Adolor Corporation, priority 2003, dated 2007).

What was measured:
[1] = molecular target: T1, cloned human κ opioid receptor (Homo sapiens, UniProt P41145); test: In vitro binding assay, inhibition of [3H]diprenorphine binding, κ receptor; settings: [3H]diprenorphine displacement; read-out: Ki against the human κ receptor
T1 construct: expressed in transfected cells
Experimental: (§1) The potencies of the compounds of the invention were determined by testing the ability of a range of concentrations of each compound to inhibit the binding of the non-selective opioid antagonist, [^3H]diprenorphine, to the cloned human μ, κ, and δ opioid receptors, expressed in separate cell lines. IC50 values were obtained by nonlinear analysis of the data using GraphPad Prism version 3.00 for Windows (GraphPad Software, San Diego). Ki values were obtained by Cheng-Prusoff corrections of IC50 values.
(§2) The receptor binding method was a modification of the method of K. Raynor et al. (Mol. Pharmacol. 1994, 45, 330–334). […] The filters were rinsed 4 times with 1 mL of cold 50 mM Tris HCl, pH 7.8 and radioactivity remaining on the filters determined by scintillation spectroscopy. Nonspecific binding was determined by the minimum values of the titration curves and was confirmed by separate assay wells containing 10 μM naloxone. Ki values were determined by Cheng-Prusoff corrections of IC50 values derived from nonlinear regression fits of 12 point titration curves using GraphPad Prism® version 3.00 for Windows (GraphPad Software, San Diego, Calif.).
(§3) To determine the equilibrium dissociation constant for the inhibitors (Ki), radioligand bound (cpm) in the presence of various concentrations of test compounds was measured. […]

[2] = molecular target: T2, cloned human μ opioid receptor (Homo sapiens, UniProt P35372); test: In vitro binding assay, inhibition of [3H]diprenorphine binding, μ receptor; settings: κ versus μ
T2 construct: expressed in transfected cells
T2 sequence (P35372 whole entry): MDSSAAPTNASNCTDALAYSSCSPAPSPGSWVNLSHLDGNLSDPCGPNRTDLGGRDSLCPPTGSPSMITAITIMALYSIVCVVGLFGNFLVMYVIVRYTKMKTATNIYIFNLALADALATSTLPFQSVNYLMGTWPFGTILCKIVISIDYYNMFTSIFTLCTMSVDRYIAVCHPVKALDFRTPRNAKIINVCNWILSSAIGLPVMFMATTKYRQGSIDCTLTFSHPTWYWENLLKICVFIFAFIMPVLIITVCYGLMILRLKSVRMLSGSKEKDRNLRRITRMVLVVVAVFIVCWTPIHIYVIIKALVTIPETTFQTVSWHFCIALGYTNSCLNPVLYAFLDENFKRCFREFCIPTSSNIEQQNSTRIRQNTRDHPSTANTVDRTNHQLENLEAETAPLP
Experimental: as §1, §2, §3

[3] = molecular target: T3, cloned human δ opioid receptor (Homo sapiens, UniProt P41143); test: In vitro binding assay, inhibition of [3H]diprenorphine binding, δ receptor; settings: κ versus δ
T3 construct: expressed in transfected cells
T3 sequence (P41143 whole entry): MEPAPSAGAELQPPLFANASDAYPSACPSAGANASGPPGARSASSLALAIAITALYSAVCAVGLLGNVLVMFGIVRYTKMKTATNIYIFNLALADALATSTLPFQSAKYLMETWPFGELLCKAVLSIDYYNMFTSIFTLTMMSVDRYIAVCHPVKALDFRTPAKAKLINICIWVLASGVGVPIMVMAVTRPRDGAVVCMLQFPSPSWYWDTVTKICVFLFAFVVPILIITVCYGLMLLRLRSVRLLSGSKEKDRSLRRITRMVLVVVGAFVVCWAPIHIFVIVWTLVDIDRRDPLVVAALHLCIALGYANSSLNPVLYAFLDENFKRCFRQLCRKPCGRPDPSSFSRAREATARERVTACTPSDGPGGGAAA
Experimental: as §1, §2, §3

cloned human κ receptors = molecular target: T4, cloned human κ receptors (Homo sapiens, UniProt P41145); test: Stimulation of [35S]GTPγS binding to membranes; type: biochemical
T4 construct: expressed in transfected cells
T4 sequence (P41145 whole entry): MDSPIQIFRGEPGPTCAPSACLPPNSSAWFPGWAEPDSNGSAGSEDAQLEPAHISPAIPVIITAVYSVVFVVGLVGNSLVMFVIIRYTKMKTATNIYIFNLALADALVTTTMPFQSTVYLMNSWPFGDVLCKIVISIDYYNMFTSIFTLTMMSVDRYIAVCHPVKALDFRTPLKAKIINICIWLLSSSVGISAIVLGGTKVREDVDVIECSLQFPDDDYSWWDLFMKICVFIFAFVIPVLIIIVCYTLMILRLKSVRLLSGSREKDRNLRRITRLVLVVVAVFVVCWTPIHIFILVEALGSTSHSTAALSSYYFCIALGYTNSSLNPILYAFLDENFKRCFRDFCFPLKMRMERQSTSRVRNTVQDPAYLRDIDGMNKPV
Experimental: The potencies of the agonists were assessed by their abilities to stimulate [^35S]GTPγS binding to membranes containing the cloned human κ receptors.
To determine the EC50 value, which was the concentration to give half-maximal stimulation of [^35S]GTPγS binding, the amount of [^35S]GTPγS bound in the presence of various concentrations of agonists was measured. The EC50 value was then determined.

[4] = test system: formalin-induced flinching; test: In vivo formalin-induced nociception assay; set-up: species or system male Sprague-Dawley rats; settings: dose of 300 μg, i.paw
Description: Administration of formalin into the paw results in a localized inflammation and a pain response that is moderate in intensity and continuous in duration. Unlike many other assays of nociception, the formalin assay measures tonic pain that is a result of tissue injury, and therefore is a model that is more relevant to clinical pain states in humans (See Tjolsen et al., Pain 51: 5–17, 1992). In the rat the response to formalin-induced pain consists of spontaneous flinching behavior, characterized by paw lifting and paw shaking, and a rapid vibration of the paw after drawing it under the body. […] The early or acute phase lasts from 0–5 minutes post-formalin and is followed by a quiescent period lasting approximately 15 minutes. The tonic phase occurs from 20–35 minutes following formalin injection and is the interval where the number of flinching responses is maximal. […]
Inflammation is induced by subcutaneous injection of […] of a 5% formalin solution into the dorsal surface of the right hind paw of male Sprague-Dawley rats weighing 70–90 g. Injections of drug are given into the dorsal surface of the paw prior to formalin injection, and flinching behavior is quantified by counting the number of responses that occur during the tonic phase of pain, lasting from 20–35 minutes after formalin injection. […]

[5] = test system: acetic acid-induced writhing; test: Acetic acid-induced writhing; type: in vivo, male CF-1 mice; settings: Mus musculus, sc; administered subcutaneously; read-out: ED50, blocking of acetic acid-induced writhing
Experimental: Injection of acetic acid into the peritoneal cavity is used as the noxious stimulus, and the number of writhing responses that occur in response to acetic acid are counted in order to quantify the response to pain.
The writhing assay is adapted from the procedure originally described by Taber, et al. (J. Pharmacol. Exp. Ther. 169: 29–38, 1986), using male CF-1 mice weighing 20–25 g. Animals are treated with various doses of drugs prior to the administration of an i.p. injection of 0.6% acetic acid solution. Mice are then placed into observation chambers and the number of writhing responses, as defined by a full hind limb extension and retraction, are recorded.
The mean number of writhing responses is calculated for vehicle-treated control mice, and the percent inhibition (% I) of writhing is calculated for each mouse that is treated with drug using the following formula: % I=100×(mean control writhing responses−individual test responses)(mean control writhing responses) (f) Hyperalgesia Induced by Tape Stripping

T1 sequence (P41145 whole entry): as above

CN(C(=O)CNc1ccccc1)[C@H](CN1CC[C@H](O)C1)c1ccccc1 [Example 1, N-{2-[(S)-3-Hydroxy-pyrrolidin-1-yl]-(S)-1-phenyl-ethyl}-N-methyl-2-phenylamino-acetamide]
Ki [1]: 170 pM | selectivity versus the human μ receptor [2]: > 100 × | selectivity versus the human δ receptor [3]: > 100 × | functional activity at κ receptor (cloned human κ receptors): agonist | EC50 (cloned human κ receptors; half-maximal stimulation of [35S]GTPγS binding, read-out: EC50 (agonist)): 50 pM | % A (percent antagonism of formalin-induced flinching) [4]: 96.2% | ED50 [5]: 0.017 mg/kg
